Source: patent US7968124B2, “Compositions for the reversal and detoxification of anesthetics and other compounds and methods of their use” (Lyotropic Therapeutics, Inc., priority 2004, dated 2011)
Values after ≈ are worked out from the molar mass of the structure shown. Like-named read-outs stand apart in the source and are kept apart here.

What was measured:
[1] = Solubility of drugs in soy oil, water, tocopherol and PC/tocopherol/water cubic phase
Experimental: (§1) Methanol and dichloromethane were particularly effective for this purpose. After solubilizing the compound and soy oil or tocopherol together with the common solvent, the common solvent was then evaporated using a rotovap. At the resulting concentration of the compound in soy oil or tocopherol, the sample was monitored over approximately 4 weeks for any sign of precipitation, using centrifugation and microscopy; the microscopy was performed using a combination of Differential Interference Contrast (DIC), transmitted dark field, and polarizing modes.

[2] = test system: bupivacaine cardiotoxicity; assay: Rescue in rat model with normally-lethal intravenous injection of bupivacaine; type: in vivo; details: rats, 12 mg/Kg intravenously, all animals
Experimental: The RA5-5E and RA5-15E dispersions prepared in Example 10 were subsequently tested in vivo as a rescue agent in a rat model incorporating a normally-lethal intravenous injection of bupivacaine. Twelve adult male rats were randomly arranged into three groups of four animals each. Animals in each group were given a known lethal dose (12 mg/Kg) of the amide local anesthetic bupivacaine intravenously. Each animal was monitored for signs of acute cardiotoxicity. All animals became pulseless within 10 seconds of the injection of bupivacaine. When each animal became pulseless, it was treated immediately with mild chest compression and with one of the following: (i) 4 ml/Kg normal physiologic saline (Group A); (ii) 4 ml/Kg of dispersion RA5-15E of the instant invention with a 15 percent particle concentration (Group B); or, (iii) 6 ml/Kg of dispersion RA5-5E of the instant invention with a 5.6 percent particle concentration (Group C). […] The administration of the dispersion according to the instant invention rescued the animals from death due to the systemic toxicity of an overdose of a common local anesthetic agent.

[3] = Effective partition coefficients of local anesthetics into Example 10 dispersions in the presence of albumin; details: dispersions and methods of Example 10, RA5-15E dispersion named
Experimental: Nanosep Omega centrifuge filters at 300,000 MWCO from Pall Filtron were used to separate particles from exterior phase.
For HPLC analysis, the bottom phase liquid (filtrate) was injected directly, and the top phase (retentate) dissolved in 500 microliters of methanol, then injected. […] Standards were run for each of the toxins, and toxin concentrations determined in the exterior (bottom) phase and in the top phase retentate.
The analysis proceeded as follows. […] From this and the top phase assay value, the concentration of toxin in the particles was back-calculated. This was then divided by the aqueous phase (bottom phase) concentration, since this was undiluted, in order to arrive at an effective partition coefficient.

[4] = pH 7.4; cited from earlier work
[5] = Uptake of toxin into particles, centrifuge filter separation and HPLC: etomidate; details: etomidate in the absence of albumin
[6] = physchem
Experimental: as §1

[7] = Binding of strontium ions to cubic phase particles (precipitation, centrifugation); type: physicochemical; details: 18.9 mM strontium chloride added to RA5-15E; immediate precipitation, centrifuged to the bottom
Description: A high degree of binding of strontium ions to the phosphatidylcholine in RA5-15E was evidenced by the immediate precipitation of the cubic phase, which centrifuged to the bottom of the dispersion. Were the heavy strontium ions not bound, the cubic phase would be less dense than water and would have centrifuged to the top of the dispersion, as is the usual case with other methods of precipitating the particles. Radiostrontium, and to a lesser extent strontium, have known toxic effects, as do related phosphatidylcholine-binding metals. More broadly, this Example illustrates how the effect of large bilayer surface areas in cubic phase particles can result in effective uptake of toxins that bind to bilayer components.

[8] = intravenous doses as high as 30 mg/Kg/day; cited from earlier work
[9] = Partitioning of vecuronium bromide between phosphatidylcholine/tocopherol/water reversed cubic phase and water (HPLC); type: physicochemical
Experimental: In this Example, the partitioning of the quaternary ammonium skeletal muscle relaxant vecuronium bromide, a water-soluble compound with a low octanol-water partition coefficient, between a phosphatidylcholine/tocopherol/water reversed cubic phase and water is measured, and found to be very high, sufficiently high as to enable the use of the invention in attenuating the effect of the drug in the body of a mammal. An amount 0.6169 gm of phosphatidylcholine (Phospholipon 90G, from Phospholipid GmbH) was mixed with 0.6730 gm of alpha-tocopherol and 0.2194 gm of a 10% vecuronium bromide solution in water. An amount 1.1226 gm of this mixture was smeared onto the inner wall of a test tube, and 6.4495 gm of water added to the tube so as to contact the mixture. Upon swelling with water, the mixture became a reversed cubic phase. […] The partition coefficient between cubic phase and water was thus approximately 1,600 (or log KQW=3.2). […] One with ordinary skill in the art will recognize that the vecuronium mass balance checks correctly if one assumes that the water content of the final cubic phase, after swelling to equilibrium, is approximately 40%, which is in perfect accord with the phase diagram derived in this laboratory for this cubic phase region.

[10] = Partition of amphotericin B between PC/alpha-tocopherol/water cubic phase and water (HPLC); type: physicochemical
Experimental: Amphotericin B provides an example of an API with high toxicity which has a site of action in the interior of a fungal lipid biomembrane.
An amount 0.0082 g of Amphotericin B and 0.8 mL of DMSO (dimethylsulfoxide) were added to a 16 mL test tube. The test tube was heated to 60° C. until the amphotericin B was completely dissolved. An amount 0.692 g of 2.5% DMPG in the phosphatidylcholine product Lipoid E80, 0.8 mL of DMSO, and 0.6 mL of ethanol were added to a second 16 mL test tube. The mixture was heated to 60° C. and vortexed until the Lipoid E80/DMPG was entirely dissolved. An amount 0.6873 g of vitamin E and 0.8 mL of DMSO were added to a third 16 mL test tube. The mixture was heated to 60° C. and vortexed until the vitamin E was completely dissolved. The contents of the second and third test tubes were added to the first test tube containing the amphotericin B and DMSO mixture. The test tube containing the entire mixture was heated to 60° C. for 30 minutes to ensure that all components were completely dissolved.
An amount of 10 mL of deionized water was added to the test tube. The test tube was gently shaken at 40 RPM for 30 minutes on a Lab-Line Junior Orbit Shaker. The aqueous portion was decanted and filtered through Aldrich medium speed filter paper into a clean test tube and labeled “wash 1”. This washing procedure was repeated three additional times to obtain “wash 2”, “wash 3”, and “wash 4”.
HPLC analysis was then performed to determine the amphotericin B concentrations in the 4 wash solutions and the final, quadruply-washed cubic phase. […] In contrast, the amphotericin B concentrations in the “wash 3” and “wash 4” solutions were both approximately 0.0035 mg/mL, thus making the partition coefficient on the order of 1,000.

[11] = oil or lipid, Solubility in soy oil

For `CCC(C)n1ncn(-c2ccc(N3CCN(c4ccc(OCC5COC(Cn6cncn6)(c6ccc(Cl)cc6Cl)O5)cc4)CC3)cc2)c1=O` (stereo not shown) [Itraconazole], the solubility ([1]; soy oil, oil or lipid) was under 500 µg/mL and the solubility ([1]; water) was 0.001 µg/mL (≈ 1.42e-06 mM).
For `CCCCN1CCCCC1C(=O)Nc1c(C)cccc1C` (stereo not shown) [bupivacaine], the “time to pulselessness after injection” value [2] is given as at most 10 s, the effective partition coefficient [3] is given as 62 and the octanol-water coefficient [4] is given as “greater than 1,000”.
`CCOC(=O)c1cncn1[C@H](C)c1ccccc1` [Etomidate] showed an effective partition coefficient [5] of 309, a solubility ([6]; oil or lipid, Solubility in cubic phase with tocopherol, approx. 34% phosphatidylcholine, 31% tocopherol plus compound, 35% water) of 105 mg/mL and a solubility [6, 11] of 80 mg/mL (≈ 327 mM). The solubility ([6]; oil or lipid, Solubility in tocopherol) was 200 mg/mL (≈ 819 mM) and the solubility ([6]; water, Solubility in Water) was 4.5e-05 mg/mL (≈ 0.000184 mM).
Work on `COc1c(C)c2c(c(O)c1C/C=C(\C)CCC(=O)OCCN1CCOCC1)C(=O)OC2` [Mycophenolate mofetil] yielded a solubility ([1]; soy oil, oil or lipid) of 3000 µg/mL (≈ 6.92 mM), a solubility ([1]; tocopherol, oil or lipid) of 200000 µg/mL (≈ 461 mM) and a solubility ([1]; water) of 39 µg/mL (≈ 0.09 mM).
`CC(=O)O[C@H]1C(=O)[C@@]2(C)[C@H]([C@H](OC(=O)c3ccccc3)[C@]3(O)C[C@H](OC(=O)[C@H](O)[C@@H](NC(=O)c4ccccc4)c4ccccc4)C(C)=C1C3(C)C)[C@]1(OC(C)=O)CO[C@@H]1C[C@@H]2O` [Paclitaxel] gave a solubility ([6]; oil or lipid, Solubility in cubic phase with spearmint oil in place of tocopherol) of 42 mg/mL (≈ 49.2 mM), a solubility [6, 11] of under 0.1 mg/mL and a solubility ([6]; oil or lipid, Solubility in spearmint oil (used in place of tocopherol)) of 100 mg/mL (≈ 117 mM).
`CCOC(=O)c1ccc(N)cc1` [benzocaine] gave an effective partition coefficient [3] of 148.
For `[Cl-].[Cl-].[Sr+2]` [strontium ions, strontium chloride], the “binding of strontium ions to cubic phase particles” value [7] was “strong binding”.
For tocopherol, the “adverse effects of intravenous doses” value [8] is listed as “essentially free from any adverse effects”.
With `CC(=O)O[C@H]1C[C@@H]2CC[C@@H]3[C@H](CC[C@@]4(C)[C@H]3C[C@H]([N+]3(C)CCCCC3)[C@@H]4OC(C)=O)[C@@]2(C)C[C@@H]1N1CCCCC1` [vecuronium bromide] the “log KQW” value [9] was 3.2, the “partition coefficient between cubic phase and water” value [9] was “approximately 1,600” and the “concentration in the aqueous phase” value ([9]; after 3 days of contact) was 6 µg/mL. The “concentration in the cubic phase” value ([9]; after 3 days of contact) was 10000 µg/mL, the “log KQW” value ([9]; anionic lipid content increased by incorporating a bile salt) was “approximately 4” and the “cubic phase-water partition coefficient” value ([9]; for at least some cubic phases of use in the invention) was “above 1,000”.
In the case of `C[C@@H]1[C@H](O)[C@@H](C)/C=C/C=C/C=C/C=C/C=C/C=C/C=C/[C@H](O[C@@H]2O[C@H](C)[C@@H](O)[C@H](N)[C@@H]2O)C[C@@H]2O[C@](O)(C[C@@H](O)C[C@@H](O)[C@H](O)CC[C@@H](O)C[C@@H](O)CC(=O)O[C@H]1C)C[C@H](O)[C@H]2C(=O)O` [amphotericin B], the “concentration in "wash 3" and "wash 4" solutions” value [10] is reported as “approximately 0.0035 mg/mL”, the “true concentration in the cubic phase itself, estimated” value ([10]; corrected for entrapped water) is reported as “approximately 3 mg/mL” and the “concentration in quadruply-washed cubic phase (HPLC)” value ([10]; cubic phase with entrapped pockets of water) is reported as 1760 µg/mL.
